The values below come from patent US20050255071A1, “Preparation having improved therapeutic breadth comprising nucleotide synthesis inhibitors” (Aventis Pharma Deutschland GmbH, priority 1998, published 2005).

A short description of series [1]: Alkaline phosphatase and amylase in adjuvant-arthritis rats (Example 3). To be noted: rat, in vivo, po, 25 mg/kg. As for the experimental part: (§1) The experimental animals used were male rats of a Lewis strain (Moellegard, Denmark) having a body weight of from 160 to 210 g. On the 1st day, the animals were injected subcutaneously, into the tail root, with complete Freund's adjuvant containing a Mycobacterium butyricum suspension in heavy paraffin oil (Difco, 6 mg/kg in paraffin oil, Merck). The compounds N-(4-trifluoromethylphenyl)-2-cyano-3-hydroxycrotonamide and colestyramine were suspended in carboxymethylcellulose (1% in water), and administered orally. The compounds were administered once daily from the 1st to the 17th day of the experiment; the paw volume and arthritis index were then determined on the 18th day.
The experimental conditions were analogous to Example 1. The actions of compound 1 and colestyramine on the amount on the of alkaline phosphatase (AP) and amylase were determined. Colestyramine was administered 4 hours later than compound 1.

Series [2] can be described thus: Blood level and duration of action of compound 1 after time-displaced colestyramine. The class given is in vivo. The settings on record: with time-displaced administration of colestyramine (2 hours or 4 hours after compound 1). The text has this: The preparation according to the invention can also include compositions or combination packs in which the constituents are placed next to one another and can therefore be used simultaneously, separately, or sequentially on one and the same human or animal body. The sequential administration of a compound of formula (I) and/or (II) before the administration of a compound, which essentially prevents the enterohepatic circulation of a compound of formula (I) and (II), is preferred. To this end, for example, N-(4-trifluoromethylphenyl)-2-cyano-3-hydroxycrotonamide (called compound 1 in the following) is administered first. Colestyramine, which essentially prevents the enterohepatic circulation of compound 1, is administered with a displacement in time, i.e., 2 hours or 4 hours after the administration of compound 1. Because of the time-displaced administration of compound 1 relative to colestyramine, compound 1 is initially absorbed unhindered from the digestive tract. After the administration of colestyramine, which is not absorbed systemically, compound 1 excreted via the bowel is bound to colestyramine, and cannot therefore be reabsorbed again; as a result, an interruption to the enterohepatic circulation is brought about.

A short description of series [3]: GOT, GPT, RBC, HGB, HCT in adjuvant-arthritis rats (Example 2). To be noted: rat, in vivo, po, 25 mg/kg. As for the experimental part: as §1
The experimental conditions were analogous to Example 1. The actions of compound 1 and colestyramine on the amount of red blood corpuscles (RBC), hemoglobin content (HGB), hematocrit (HCT), amount of glutamate oxlacetate transaminase (GOT), and glutamate pyruvate transaminase (GPT) were determined. Colestyramine was administered 4 hours later than compound 1.

The test system of series [4] is Adjuvant-Induced Arthritis. The class given is in vivo, rats. As for the experimental part:
Adjuvant-Induced Arthritis, Modification According to Perper (Proc. Soc. Exp. Biol. Med. 137, 506 (1971)).
as §1
The severity of the disorder was determined by measuring the paw volume of both hind paws. The measurement was carried out by means of the water displacement method using a 2060 Plethys monitor (Rhema-Labortechnik, Hofheim, Germany). The arthritis index was furthermore determined in the 18th day after injection.
Determination of the arthritis index was scored as follows:
On the first day, animals of an “arthritis control” control group were given a subcutaneous injection, into the tail root, with complete Freund's adjuvant but were given only the solvent (i.e., 1% cabrboxymethylcellulose in water). Six animals in each case were used per dose and in the control group. Untreated animals were employed as a further “healthy control” control group. The activity criteria used were the reduction of the increase in the paw volume and the decrease in the arthritis index, compared with the untreated control group, and the weight of the animals, in each case in percent and based on the arthritis control.
In the following table, N-(4-trifluoromethylphenyl)-2-cyano-3-hydroxycrotonamide is compound 1. Colestyramine was administered 4 hours later than compound 1.

Where [5] appears, read: Example 1, 2.5 mg/kg of live weight oral once daily day 1-17, day 18.
Where [6] appears, read: Example 1, 7.5 mg/kg of live weight oral once daily day 1-17, day 18.
Where [7] appears, read: Example 1, 25 mg/kg of live weight oral once daily day 1-17, day 18.
Setting [8] is: Example 2, 25 mg/kg of live weight oral.
The mark [9] stands for this setting: Example 3, 25 mg/kg of live weight oral.

Read-outs that look alike come from different tables or passages of the source.

Regarding `C/C(O)=C(\C#N)C(=O)Nc1ccc(C(F)(F)F)cc1` [Compound 1, N-(4-trifluoromethylphenyl)-2-cyano-3-hydroxycrotonamide], in series [1], the AP is given as 114.8 U/I and the Amylase was determined as 1306.5 U/I. Moreover, in series [2], the “blood level of compound 1” value is recorded as “drastically reduced” and the duration of action entry was “drastically reduced”. Also, in series [3], the GOT is listed as 85.3 U/I, the GPT is given as 25.1 U/I, the HCT is recorded as 18.7% and the HGB is 6.1 g/dL. In series [3], the RBC is 3.8 *10^6/mm^3. Besides, in series [4] (25 mg/kg/day of compound 1, with administration of colestyramine), the “desired actions on the immune system” value is “retention”. Further, in series [4] (setting [5]), the Arthritis index is on record as −77% and the “Paw Volume” value was −63%. In series [4] (setting [6]), the Arthritis index is −92% and the “Paw Volume” value is −83%. For the same molecule, in series [4] (setting [7]), the Arthritis index is −100% and the “Paw Volume” value is listed as −92%. For the same molecule, in series [4] (setting [8]), the Arthritis index is −100% and the “Paw Volume” value was −92%. Moreover, in series [4] (setting [9]), the “Arthritis index” value is given as −100% and the Paw Volume is given as −110%. Besides, the “activity in adjuvant arthritis” value in series [4] (approximately 2.5 mg/kg/day of compound 1, with administration of colestyramine) was “not reduced”.
